# From ChEMBL document CHEMBL5247657 (J Med Chem, 2023)
# What was measured:
# [1] = Volume of distribution at steady state in Sprague-Dawley rat at 1 mg/kg, iv measured upto 24 hrs by LC-MS/MS analysis; type: ADME, organism-based; details: in vivo, read-out: Vdss
# [2] = Half-life in Sprague-Dawley rat at 1 mg/kg, iv measured upto 24 hrs by LC-MS/MS analysis; type: ADME, organism-based; details: in vivo
# [3] = in vivo; details: Sprague-Dawley, rat, po, 5 mg/kg
# [4] = Half-life in Beagle dog at 1 mg/kg, iv measured upto 24 hrs by LC-MS/MS analysis; type: ADME, organism-based, Canis lupus familiaris; details: in vivo
# [5] = Volume of distribution at steady state in Beagle dog at 1 mg/kg, iv measured upto 24 hrs by LC-MS/MS analysis; type: ADME, organism-based, Canis lupus familiaris; details: in vivo, read-out: Vdss
# [6] = in vivo; details: Beagle, dog, po
# [7] = Tmax in Sprague-Dawley rat at 5 mg/kg, po measured upto 24 hrs by LC-MS/MS analysis; type: ADME, organism-based; details: in vivo
# [8] = in vivo; details: Beagle, dog, iv, 1 mg/kg
# [9] = in vivo; details: Beagle, dog, po; remark: listed apart in the source
# [10] = in vivo; details: Beagle, dog, po; remark: listed apart in the source
# [11] = Tmax in Beagle dog at […], po measured upto 24 hrs by LC-MS/MS analysis; type: ADME, organism-based, Canis lupus familiaris; details: in vivo, dose 2.5 mg/kg
smiles,measurement,setting,value
C=CC(=O)N1CCC([C@@H]2CCNc3c(C(N)=O)c(-c4cc(OC)c(C)c(OC)c4)nn32)CC1,Vd,[1],0.9 L/kg
same,half-life,[2],36 min
same,AUC(0-inf) at 24 h,[3],964 ng·h/mL
same,half-life,[4],150 min
same,Vd,[5],0.74 L/kg
same,AUC(0-inf) at 24 h,[6],2640 ng·h/mL
same,Tmax,[7],15 min
same,clearance at 24 h,[8],6.89 mL/min/kg
same,Cmax at 24 h,[9],1250 ng/mL
same,bioavailability at 24 h,[10],43%
same,Tmax at 24 h,[11],25.2 min
